The text below walks through data of patent US11149062B2, “HDAC inhibitors and methods of treatment using the same” (UWM Research Foundation, Inc., priority 2015, dated 2021).

pIC50: −log10 of the molar value. A value given as a limit tells only on which side of the number the result lay.

The target of one assay is T1, Recombinant human HDAC8 (Homo sapiens, UniProt Q9BY41).
T1 construct: purchased BPS Bioscience Inc
T1 sequence (Q9BY41 1-377): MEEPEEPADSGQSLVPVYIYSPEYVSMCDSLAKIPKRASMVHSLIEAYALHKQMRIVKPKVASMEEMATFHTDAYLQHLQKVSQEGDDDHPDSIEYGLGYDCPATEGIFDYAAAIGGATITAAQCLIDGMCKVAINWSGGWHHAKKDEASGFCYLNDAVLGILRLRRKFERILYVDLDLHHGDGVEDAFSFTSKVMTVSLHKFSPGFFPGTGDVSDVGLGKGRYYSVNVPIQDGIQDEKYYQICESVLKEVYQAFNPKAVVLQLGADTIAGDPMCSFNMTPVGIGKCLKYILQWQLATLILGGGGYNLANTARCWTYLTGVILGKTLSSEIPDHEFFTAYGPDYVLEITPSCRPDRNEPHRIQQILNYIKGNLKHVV
Nature of the assay: HDAC-Glo I/II assay, HDAC8. Type of assay: biochemical. Conditions: Class I HDAC; compounds reduced by TCEP prior to assay. The protocol:
(§1) The purified compounds of all fragments and natural product derivatives were evaluated for inhibitory effects on three different classes of HDAC proteins (class I, IIa, and IIb). […] All activity was determined by using a fluorescence-based in vitro assay. Class I HDAC proteins that were evaluated were HDAC1, HDAC2, HDAC3, HDAC8, HDAC4, and HDAC6. Class IIa HDAC protein were HDAC4 and the Class IIb HDAC protein were HDAC6.
(§2) HDAC-Glo™ I/II Assay and Screening System (Promega) was used to determine the HDAC inhibitory activity. Recombinant human HDAC1, HDAC2, HDAC3, HDAC4, HDAC6 and HDAC8 were purchased from BPS Bioscience Inc. The inhibitory activities of the test compounds against recombinant HDAC were performed according to reagent suppliers' protocols.
(§3) All test compounds were firstly dissolved in DMSO to make 10 mM stock solution. A certain amount of stock solution was diluted to 1 mM by DMSO and then reduced by tris(2-carboxyethyl)phosphine hydrochloride (TCEP) in a molar ration of 1:1.5 for 20 min at ambient temperature prior to being assayed. After reduction, a series of fivefold dilutions of each reduced compound were prepared with HDAC-Glo buffer and 25 μL of each dilution was added into a well on a 96-well plate. HDAC enzymes were diluted to the desired concentrations with HDAC-Glo buffer and 25 μL of each diluted enzyme was dispensed into a well to mix with 25 μL of testing compound at room temperature for 30-60 seconds. After the reaction mixture had been incubated at room temperature for 1 hour, 50 μL of HDAC-Glo reagent was added to each reaction well and mixed up for 30-60 seconds. Finally, the plate was incubated at room temperature for an additional 30 minutes before the luminescence was measured on a Synergy HT plate reader (Bio-Tek). The luminescence intensity data were analyzed using GraphPad Prism 5 (GraphPad Software). In the absence of any test compound, the luminescence intensity (I100) in each data set was defined as 100% activity. In the absence of both of HDAC enzymes and test compound, the luminescence intensity (I0) in each data set was defined as 0% activity. The relative activity (%) in the presence of each compound was calculated according to the following equation: % activity=(I−I0)/(I100−I0), where I=the luminescence intensity if a compound is present in the reaction. Experiments were performed in triplicate and the calculated mean values were used for plotting.

In another assay the target is T2, Recombinant human HDAC4 (Homo sapiens, UniProt P56524).
T2 construct: purchased BPS Bioscience Inc
T2 sequence (P56524 whole entry): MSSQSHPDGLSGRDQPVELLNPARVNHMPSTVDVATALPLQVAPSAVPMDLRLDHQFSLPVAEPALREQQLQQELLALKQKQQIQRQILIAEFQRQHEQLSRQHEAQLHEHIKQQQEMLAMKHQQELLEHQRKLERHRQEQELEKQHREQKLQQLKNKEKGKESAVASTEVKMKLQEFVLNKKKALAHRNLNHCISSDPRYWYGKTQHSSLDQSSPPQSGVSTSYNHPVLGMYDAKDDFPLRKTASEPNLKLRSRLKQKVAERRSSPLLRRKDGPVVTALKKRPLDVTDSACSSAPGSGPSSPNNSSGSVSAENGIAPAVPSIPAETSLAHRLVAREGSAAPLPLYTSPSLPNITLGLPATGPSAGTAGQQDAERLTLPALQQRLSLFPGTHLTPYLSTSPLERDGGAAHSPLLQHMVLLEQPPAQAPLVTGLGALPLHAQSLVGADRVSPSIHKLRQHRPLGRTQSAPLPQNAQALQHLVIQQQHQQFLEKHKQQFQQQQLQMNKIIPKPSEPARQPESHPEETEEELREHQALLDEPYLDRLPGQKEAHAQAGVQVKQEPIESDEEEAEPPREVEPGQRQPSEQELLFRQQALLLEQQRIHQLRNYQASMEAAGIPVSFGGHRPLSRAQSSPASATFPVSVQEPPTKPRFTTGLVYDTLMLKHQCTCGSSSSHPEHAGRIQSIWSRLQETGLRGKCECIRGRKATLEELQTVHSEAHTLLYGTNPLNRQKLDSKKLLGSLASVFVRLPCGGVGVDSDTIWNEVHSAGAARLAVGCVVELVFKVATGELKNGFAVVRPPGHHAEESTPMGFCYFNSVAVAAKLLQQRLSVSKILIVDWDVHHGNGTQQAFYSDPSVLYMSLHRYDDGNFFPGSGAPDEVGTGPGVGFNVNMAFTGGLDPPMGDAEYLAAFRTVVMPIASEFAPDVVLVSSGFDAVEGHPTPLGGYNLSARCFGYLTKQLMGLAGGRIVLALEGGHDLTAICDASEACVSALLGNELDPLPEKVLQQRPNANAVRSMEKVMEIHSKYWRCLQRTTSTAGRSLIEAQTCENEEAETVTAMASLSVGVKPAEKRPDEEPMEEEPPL
Put plainly: HDAC-Glo I/II assay, HDAC4. It counts as biochemical. The following applies: Class IIa HDAC; compounds reduced by TCEP prior to assay; read-out: IC50 of HDAC4. The protocol:
as §1, §2, §3

The next assay relates to HCT-116 (colon cancer). Nature of the assay: MTT antiproliferative assay, HCT-116. Conditions: Homo sapiens, HCT-116; MTT, 48 h; read-out: Antiproliferative Activity GI50, Colon HCT-116. Type of assay: cell-based. As for the experimental part:
(§4) Briefly, the tumor cells (1×10^4 cells/well) were seeded in 96-well microtiter plates and incubated for 24 h at 37° C. Following incubation, the media was replaced with fresh media containing the above compounds at concentrations ranging from 1 μM to 1 pM diluted in DMSO and incubated for an additional 48 h. Drugs were run in duplicate or triplicate and control cells received fresh media with DMSO concentration equivalent to the treatment groups. […] After aspirating the culture medium, 200 μL of DMSO was added to dissolve the precipitate and the resulting solution was measured for absorbance at 570 nm with a reference wavelength of 690 nm using a microplate reader (Infinite M200 Pro TECAN).

For a further assay, the system named is HeLa (cervical cancer). Nature of the assay: MTT antiproliferative assay, HeLa. It counts as cell-based. Conditions: Homo sapiens, MTT, 48 h, read-out: Antiproliferative Activity GI50, Cervical HeLa. The protocol: as §4

As to `CSCC[C@H]1NC(=O)CC(O)/C=C/CCSSC[C@H](C(=O)O)NC1=O` (stereo partly drawn) [TDF3, (4S,7R,12E)-11-hydroxy-7-[2-(methylsulfanyl)ethyl]-6,9-dioxo-1,2-dithia-5,8-diazacyclopentadec-12-ene-4-carboxylic acid], the pIC50 is 4.20 at Recombinant human HDAC8 and less than 3.00 on Recombinant human HDAC4. In addition, the GI50 amounted to 300 nM in the assay on HCT-116 (colon cancer) and 600 nM in the assay on HeLa (cervical cancer).
Take `COC(=O)[C@H]1CSSCC/C=C/C(O)CC(=O)N[C@H](CCSC)C(=O)N1` (stereo partly drawn) [TDF3m, Methyl (4S,7R,12E)-11-hydroxy-7-[2-(methylsulfanyl)ethyl]-6,9-dioxo-1,2-dithia-5,8-diazacyclopentadec-12-ene-4-carboxylate]: the pIC50 was 4.20 on Recombinant human HDAC8 and less than 3.00 on Recombinant human HDAC4. In addition, the GI50 in the assay with HCT-116 (colon cancer) turned out to be 200 nM; with HeLa (cervical cancer), 400 nM.
